Laboratory results: US20060281806A1, “Treatment and inhibition of disease conditions using flexible heteroarotinoids” (priority 2005, published 2006)
Entries after “also recorded” stand apart in the source; their conditions may differ.

Assays:
Raldh2 −/− embryos = assay: Rescue of Raldh2 −/− embryos and teratogenesis; format: in vivo, mouse; conditions: for No. of −/− unrescued / Teratogenesis (no. of embryos) / No. of −/− rescued: E10.25 embryos
Experimental: Dosages varied from 0.025 to 25 mg/kg.

[1] = tested on: SiHa human cervical cell line; assay: In vitro cytotoxicity (SRB growth inhibition) assay, SiHa; format: cell-based; design: dose or concentration left out as unconfirmed; conditions: 72 h
Experimental: (§1) The SHetA2, SHetA3, SHetA4, SHet50 and 9-cis-RA compounds were evaluated in 4 cervical carcinoma cell lines. The SiHa, CC-1 and C33a human cervical cell lines were maintained in Minimal Essential Media (MEM) containing Earle's salts and L-glutamine supplemented with nonessential amino acids, 1% sodium pyruvate, 10% fetal bovine serum (FBS) and antibiotic/antimycotic. The HT-3 cervical carcinoma cell line was cultured in McCoy's 5a medium supplemented with 10% FBS and antibiotic/antimycotic. Cells were inoculated into 96 well microtiter plates at densities of 1000 cells/well and incubated for 24 h prior to addition of drugs. Drugs were dissolved in dimethyl sulfoxide (DMSO) and diluted in complete medium, prior to addition to triplicate culture wells to achieve final concentrations of […]. Following drug addition, the plates were incubated for 72 h. The assay was terminated by the addition of cold TCA and the cells were stained with 0.4% sulforhodamine B (SRB) in 1% acetic acid. Bound stain was subsequently solubilized with 10 mM trizma base, and the absorbance was read on an automated plate reader at a wavelength of 560 nm. Growth inhibition was determined by dividing the average Optical Density (OD) of the triplicated treated cultures by the average OD of the triplicate control cultures treated with DMSO solvent only. This ratio was converted into a percentage by multiplying by 100. The potency (concentration required to induce half of the maximal activity—GI50) were derived from dose-response graphs generated with results from 3 to 5 individual experiments using GraphPad Software.

[2] = tested on: C33a human cervical cell line; assay: In vitro cytotoxicity (SRB growth inhibition) assay, C33a; format: cell-based; design: dose or concentration left out as unconfirmed; conditions: 72 h
Experimental: as §1

[3] = tested on: HT-3 cervical carcinoma cell line; assay: In vitro cytotoxicity (SRB growth inhibition) assay, HT-3; format: cell-based, human; design: dose or concentration left out as unconfirmed; conditions: 72 h
Experimental: as §1

[4] = tested on: CC-1 human cervical cell line; assay: In vitro cytotoxicity (SRB growth inhibition) assay, CC-1; format: cell-based; design: dose or concentration left out as unconfirmed; conditions: 72 h
Experimental: as §1

[5] = tested on: ovarian carcinoma organotypic cultures; assay: Organotypic culture model of ovarian tumors; format: cell-based, human; conditions: 1 μM retinoid in media; 3, 7 or 14 days
Experimental: FIG. 17. Retinoid effects on ovarian carcinoma organotypic cultures. Organotypic cultures of OVCAR-3 (A, B, E, F, I and J), Caov-3 (C and G), SK-OV-3 (D and H), and O2 (K and L) were grown in the absence (−, top row and K) or presence (+, middle row and I, J and L) of retinoid HetA4 at a concentration of 1 μM in the media. All sections were stained with H&E except for I, which was stained with PAS to detect glycoproteins and glandular differentiantion, and J, which was stained with the TUNEL assay to detect apoptosis. All magnifications are 40×.
To test our hypotheses, we evaluated the effects of clinically achievable concentrations of 4-HPR and Flex-Hets on growth, differentiation and apoptosis in ovarian tissue. A series of compounds with a variety of receptor activation profiles were evaluated. In order to evaluate therapeutic effects, we developed an organotypic culture model of ovarian tumors by growing established cell lines and primary cultures inside collagen gels. Monolayer cultures of cells are not accurate representations of in vivo tissue because they lack the types of interactions that cells have with other cells and with the extracellular matrix in vivo. These interactions are known to influence gene expression and thus the constitution and behavior of cells. In our organotypic model, the growth of tumor cells inside the collagen allows a representation of tumors that have invaded stromal tissue. In the presence of fibroblasts, established cell lines and primary cultures of ovarian cancer formed colonies inside the collagen, while normal or benign ovarian epithelial cells remained as single cells inside the collagen. Human ovarian cancer cell lines (OVCAR-3, Caov-3, SK-OV-3, A2780, UCI 101) and primary human cultures (borderline ovarian tumor (O1), serous papillary tumor (O2), benign ovarian cyst (O3)) were cultured inside and on top of a collagen gel seeded with 3T3 fibroblasts for one week. After further incubation in the presence or absence of 1 μM retinoid (media concentration) for 3, 7 or 14 days, cultures were fixed and sectioned for immunohistochemical analysis.

[6] = tested on: dorsal skin of female Skh hairless mice; assay: Topical irritancy; format: in vivo; conditions: topical on dorsal skin for 4 days; 2-log concentration dose range
Experimental: Female Skh hairless mice, 6-8 weeks old, were treated topically on the dorsal skin for 4 days over a 2-log concentration dose range with various compounds. Retinoic acid receptor-Hets were evaluated in A, while retinoic acid receptor-independent Flex-Hets were evaluated in B. Daily flaking and abrasion scores were combined to calculate a single cutaneous toxicity score for each mouse. Each treatment group consisted of 4 mice, and group averages were used to plot cutaneous toxicity against doses of the compounds.
Topical irritancy was evaluated according to published procedures (29). Briefly, female Skh hairless mice, 6-8 weeks old, were treated topically on the dorsal skin for 4 days over a 2-log concentration dose range with various compounds. Daily flaking and abrasion scores were combined to calculate a single cutaneous toxicity score for each mouse. Each treatment group consists of 4 mice, and group averages are used to plot cutaneous toxicity against dose of the retinoid compound.

[7] = Alanine aminotransferase (ALT) activity in plasma of mice; format: in vivo, mouse; conditions: end of treatment, 10 mg/kg/day by gavage
Experimental: At the end of the treatment period, blood was drawn from each animal. Plasma was separated by centrifugation and stored at −70° C. The activity of ALT was determined in aliquots of plasma by standard spectrophotometric enzymatic techniques which are based on the reduction of pyruvate by lactate dehydrogenase (28). The method measures NADH disappearance with time of incubation at 37° C. The activities are expressed as mm/L/min. Two different amounts of plasma were used in each assay to assure measurement of the maximum rate.

OVCAR-3 xenograft tumors = assay: OVCAR-3 xenograft tumor animal model, tumor growth; format: in vivo, mouse; conditions: 10 mg/kg/day by gavage, 5 days/week, 4 weeks; t-test on day 29
Experimental: Groups of 5 mice bearing OVCAR-3 xenografted tumors were gavaged daily with the indicated drugs in sesame oil (▪ closed square) or with sesame oil alone (∘ open circle). Tumor volumes were measured in 3 dimensions with calipers weekly. Each data point represents the average and standard error of the tumor volumes on the indicated treatment day relative to the tumor volume on day zero. Nu/nu mice were injected subcutaneously with one million OVCAR-3 cells and arbitrarily divided into five groups of six mice each. After three weeks of tumor growth, the animals were gavaged with sesame oil, 10 mg/kg/day 4-HPR, or the indicated Het five times per week for four weeks and the tumors were measured once per week. The tumor sizes were averaged and divided by the average size for each group on the day that treatment was initiated (day 0).
The OVCAR-3 cultures were maintained in RPMI media supplemented with 10% fetal bovine serum. All animal experimentation described in this manuscript was conducted in accord with accepted standards of humane animal care. Twenty-five female NU/NU CD-1 female mice (Charles Rivers Laboratories) were housed in a laminar flow room under sterile conditions at 83-85° F. The mice were quarantined for one week prior to the beginning of the study and were allowed access to autoclaved food (Purina 5001 mouse/rat sterilizable diet, St. Louis, Mo.) and water ad libitum. OVCAR-3 cells in log phase growth were harvested by trypsinization, resuspended in RPMI culture medium, and centrifuged at 3,000 rpm for 10 min. The pellets were resuspended in RPMI culture medium at a concentration of 7×10^6 cells/ml before implantation into mice. Animals were injected with 3.5×10^6 cells into the right scapular region with a 24-gauge needle/1 cc tuberculin syringe. Twenty-four hours after tumor implantation, animals were randomized into 5 groups of 5 animals each.
The Hets SHet50, SHetA2 and SHetA4 were synthesized and their receptor specificity determined as previously described (17,19). The 4-HPR compound was a gift from R.W. Johnson Pharmaceutical Research Institute, Raritan, N.J. All retinoids were dissolved in super refined sesame oil (Croda, Inc., Parsippany, N.J.) and stored at −80° C. Since the retinoids are light sensitive, all manipulations involving retinoids were performed under subdued lighting. […] Tumors were measured with calipers weekly, and tumor volumes were calculated using the formula: volume=length×width×height. Tumor growth was determined by the dividing the volume of the tumor at each weekly measurement by the volume on the first day of treatment. Animal weights and clinical signs of overall health status and cutaneous toxicities were recorded weekly.

[8] = dose 2.5 mg/kg oral to pregnant mice
[9] = dose 10 mg/kg oral to pregnant mice
[10] = dose 1.0 mg/kg oral to pregnant mice
[11] = dose 25 mg/kg oral to pregnant mice
[12] = dose 0.025 mg/kg oral to pregnant mice
[13] = dose 0.25 mg/kg oral to pregnant mice
[14] = dose 0.5 mg/kg oral to pregnant mice

In the case of `CC1=C(/C=C/C(C)=C\C=C\C(C)=C\C(=O)O)C(C)(C)CCC1` [9-cis-RA, 9-cis-retinoic acid], the “rescue of Raldh2 −/− embryos (phenotype)” value (Raldh2 −/− embryos; 2.5 mg/kg to pregnant mothers) is reported as “partial rescue”, the “No. of −/− unrescued” value (Raldh2 −/− embryos; [8]) is reported as 8 and the “Teratogenesis (no. of embryos)” value (Raldh2 −/− embryos; [8]) is reported as 0. For the same compound, the “No. of −/− rescued” value (Raldh2 −/− embryos; [9]) was 6, the “No. of −/− unrescued” value (Raldh2 −/− embryos; [9]) was 1 and the “Teratogenesis (no. of embryos)” value (Raldh2 −/− embryos; [9]) was 0. The “Efficacy: percent growth inhibition relative to the untreated control” value [1] was 24%, the “Efficacy: percent growth inhibition relative to the untreated control” value [2] was 45% and the “Efficacy: percent growth inhibition relative to the untreated control” value [3] was 47%. For the same compound, the “Efficacy: percent growth inhibition relative to the untreated control” value [4] was 28% and the “induction of apoptosis (TUNEL) in organotypic cultures” value [5] was “Apoptosis was induced”.

In the case of `CC1=C(/C=C/C(C)=C/C=C/C(C)=C/C(=O)O)C(C)(C)CCC1` [All-trans-RA], the “No. of −/− rescued” value (Raldh2 −/− embryos; [10]) is reported as 0, the “No. of −/− unrescued” value (Raldh2 −/− embryos; [10]) is reported as 7 and the “Teratogenesis (no. of embryos)” value (Raldh2 −/− embryos; [10]) is reported as 0. For the same compound, the “No. of −/− rescued” value (Raldh2 −/− embryos; [8]) was 13, the “No. of −/− unrescued” value (Raldh2 −/− embryos; [8]) was 1 and the “Teratogenesis (no. of embryos)” value (Raldh2 −/− embryos; [8]) was 0.

With `CCOC(=O)c1ccc(OC(=O)c2ccc3c(c2)C(C)(C)CCN3C(C)C)cc1` [NHet17] the “topical irritancy (cutaneous toxicity score)” value (shortened to “topical irritancy”) [6] was “induced topical irritancy scores in a dose-responsive manner”.

In the case of `CC1(C)CCOc2ccc(C(=O)Oc3ccc(C=NNC(N)=S)cc3)cc21` [OHet72], the “topical irritancy” value [6] is reported as “did not induce topical irritancy”, the “rescue of Raldh2 −/− embryos (phenotype)” value (Raldh2 −/− embryos; 2.5 mg/kg to pregnant mothers) is reported as “no rescue” and the “rescue of Raldh2 −/− embryos (phenotype)” value (Raldh2 −/− embryos; 10 or 25 mg/kg to pregnant mothers) is reported as “no rescue”. For the same compound, the teratogenesis in litters (Raldh2 −/− embryos; any dosage (2.5, 10, 25 mg/kg)) was “no teratogenesis was observed”, the “No. of −/− rescued” value (Raldh2 −/− embryos; [8]) was 0 and the “No. of −/− unrescued” value (Raldh2 −/− embryos; [8]) was 4. The “Teratogenesis (no. of embryos)” value (Raldh2 −/− embryos; [8]) was 0, the “No. of −/− rescued” value (Raldh2 −/− embryos; [9]) was 0 and the “No. of −/− unrescued” value (Raldh2 −/− embryos; [9]) was 3. For the same compound, the “Teratogenesis (no. of embryos)” value (Raldh2 −/− embryos; [9]) was 0, the “No. of −/− rescued” value (Raldh2 −/− embryos; [11]) was 0 and the “No. of −/− unrescued” value (Raldh2 −/− embryos; [11]) was 5. For the same compound, the “Teratogenesis (no. of embryos)” value (Raldh2 −/− embryos; [11]) was 0.

In the case of `COC(=O)c1ccc(C(=O)Nc2ccc3c(c2)C(C)(C)CC(C)(C)S3)cc1` [SHet50, reference compound], the “ALT Activity” value [7] is reported as 65.5 ± 46.3 mm/liter/min, the “Efficacy: percent growth inhibition relative to the untreated control” value [1] is reported as 35% and the “Efficacy: percent growth inhibition relative to the untreated control” value [2] is reported as 67%. The “Efficacy: percent growth inhibition relative to the untreated control” value [3] was 47%, the “growth of xenograft tumors versus sesame oil control” value (OVCAR-3 xenograft tumors) was “significantly inhibited the growth; also recorded: significantly less” and the “Efficacy: percent growth inhibition relative to the untreated control” value [4] was 15%. The “induction of apoptosis (TUNEL) in organotypic cultures” value [5] was “Apoptosis was induced”.

With `CC(C=CC=C(C)c1ccc2c(c1)C(C)(C)CS2)=CC(=O)O` [SHet65] the “topical irritancy” value [6] was “induced topical irritancy scores in a dose-responsive manner”.

In the case of `CC(Cc1ccc(C(=O)O)cc1)c1ccc2c(c1)C(C)(C)CS2` (stereo not drawn) [SHet100], the “rescue of Raldh2 −/− embryos (phenotype)” value (Raldh2 −/− embryos; 0.25 mg/kg to pregnant mothers) is reported as “partial rescue”, the “rescue of Raldh2 −/− embryos (phenotype)” value (Raldh2 −/− embryos; 0.5 mg/kg to pregnant mothers) is reported as “typical rescue phenotype” and the teratogenesis in litter (Raldh2 −/− embryos; 2.5 mg/kg to pregnant mothers) is reported as “teratogenic for all embryos in a litter”. For the same compound, the “No. of −/− rescued” value (Raldh2 −/− embryos; [12]) was 0, the “No. of −/− unrescued” value (Raldh2 −/− embryos; [12]) was 2 and the “Teratogenesis (no. of embryos)” value (Raldh2 −/− embryos; [12]) was 0. The “No. of −/− unrescued” value (Raldh2 −/− embryos; [13]) was 0, the “Teratogenesis (no. of embryos)” value (Raldh2 −/− embryos; [13]) was 0 and the “No. of −/− rescued” value (Raldh2 −/− embryos; [14]) was 6. The “No. of −/− unrescued” value (Raldh2 −/− embryos; [14]) was 1, the “Teratogenesis (no. of embryos)” value (Raldh2 −/− embryos; [14]) was 0 and the “Teratogenesis (no. of embryos)” value (Raldh2 −/− embryos; [8]) was 11.
